Reference: article PMC9684503 (Communications Biology, 2022)
Values joined by “and” are separate entries in the source; they are usually repeats but may differ in a detail not shown here. Equal values may be shown once. Where a name gives a salt, the structure may show the parent alone. Read-outs that look alike come from different tables or passages of the source.

Legend:
rat VMAT2 variants = conditions: cited from earlier work
VMAT2 [1] = biological target: T1, VMAT2 (Rattus norvegicus, UniProt Q01827); assay: [3H]-DTBZ competition assay in Hek293 cells expressing VMAT2; conditions: 50 μM compound;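 also: HEK293 cells transfected with VMAT2, pretreated 30 min with compound, then given 5 nM [3H]-DTBZ for 20 min at 37 °C, bound label read by scintillation counting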
T1 sequence (Q01827 whole entry): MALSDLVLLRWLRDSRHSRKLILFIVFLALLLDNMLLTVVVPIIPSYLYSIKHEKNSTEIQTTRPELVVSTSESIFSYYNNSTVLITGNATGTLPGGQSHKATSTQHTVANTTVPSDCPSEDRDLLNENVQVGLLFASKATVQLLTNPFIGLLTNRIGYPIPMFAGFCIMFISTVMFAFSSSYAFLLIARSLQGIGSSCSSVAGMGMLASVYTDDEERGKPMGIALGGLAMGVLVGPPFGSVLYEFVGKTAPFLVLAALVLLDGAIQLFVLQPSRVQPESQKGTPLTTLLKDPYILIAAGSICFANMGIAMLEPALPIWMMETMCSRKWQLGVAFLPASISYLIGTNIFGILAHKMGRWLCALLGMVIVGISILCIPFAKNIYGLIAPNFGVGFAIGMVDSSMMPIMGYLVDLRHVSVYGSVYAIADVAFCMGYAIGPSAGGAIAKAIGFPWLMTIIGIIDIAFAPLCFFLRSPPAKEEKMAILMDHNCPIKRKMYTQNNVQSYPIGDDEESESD
Procedure: (§1) We preincubated cells expressing VMAT2 with 50 μM compounds and measured [^3H]-DTBZ binding (5 nM) to the sample (Fig. 3a). […] Hek293 cells were grown and transfected with pcDNA3.1 VMAT2-His as described above. Two days after transfection, cells were harvested, washed and transferred to 96 well MultiScreen FB filter plates (Millipore). […] Cells were washed 3 times with ice cold PBS and 50 µl Ultima Gold LLL (PerkinElmer) was added to each well. […] After a 20 min incubation at 37 °C, cells were washed and [^3H] scintillation counting was performed as described above.

rat VMAT2-His = biological target: T2, rat VMAT2-His (Rattus norvegicus, UniProt Q01827); assay: Differential scanning fluorimetry (DSF) with CPM dye: change of melting temperature of purified VMAT2; type: binding; conditions: for ΔTm: Table 1, DSF screening, mean ± SD of triplicates; for ΔTm at 12 µM / ΔTm at 37 µM / ΔTm at 10 µM / ΔTm at 30 µM / ΔTm at 90 µM / ΔTm at 270 µM / ΔTm at 11 µM / ΔTm at 33 µM: Table S2 dose response, read-out: ΔTm; for ΔTm at 12 µM: compound 0,12 µM; for ΔTm at 37 µM: compound 0,37 µM; for ΔTm at 10 µM: compound 10 µM; for ΔTm at 30 µM: compound 30 µM; for ΔTm at 90 µM: compound 90 µM; for ΔTm at 270 µM: compound 270 µM; for ΔTm at 11 µM: compound 1,11 µM; for ΔTm at 33 µM: compound 3,33 µM
T2 construct: The ORF of rat VMAT2 was subcloned into a pFastBac vector; His; made in house; host or cells: Sf9 insect cells (baculovirus)
T2 sequence (Q01827 whole entry): as above
Procedure: To screen purified VMAT2 by DSF we expressed the rat VMAT2 protein, as VMAT2-His, in SF9 insect cells using the baculovirus expression system. The transporter was solubilized and purified in n-Dodecyl-β-D-maltoside (DDM)/cholesterol hemisuccinate (CHS) micelles by immobilized metal affinity chromatography (IMAC) and size exclusion chromatography (SEC). […] Screening was performed using DSF and the thiol-reactive dye 7-diethylamino-3-(4-maleimidophenyl)-4-methylcoumarin (CPM), an approach that monitors changes to the protein melting temperature (Tm) upon compound binding. Using CPM or other dyes, DSF-based assays have successfully been used in molecular-based screenings[34],[35]. […] DSF screening was performed in 384 well plates using the thiol-sensing dye 7-diethylamino-3-(4-maleimidophenyl)-4-methylcoumarin (CPM) (Merck). […] Protein melting curves were determined using a LightCycler 480 ii RT-PCR system (Roche), with a temperature ramp increasing from 25 to 95 °C at a rate of 2 °C/min. Data analysis was performed using an in-house software that automatically determines the protein midpoint melting temperature (Tm) based on the second derivative of the melting curves or using the HTSDSF explorer as described in ref. [58]. […] 6 μl of this mix was dispensed to each well of 384 well plates using a Multidrop™ Combi Reagent Dispenser (Thermo Scientific). […] All initial hits were then subjected to an initial validation in triplicates with a compound concentration of 200 μM and a ΔTm > 5× the standard deviation (SD) cut off. […] Processing of the data from the primary screening and the concentration-dependent validation was performed as reported.

rat VMAT2 = rat VMAT2 (Rattus norvegicus, UniProt Q01827); assay: FFN206 uptake assay in transfected Hek293 cells; conditions: Fig. 2a source data, 25 μM compound
Sequence of rat VMAT2 (Q01827 whole entry): as above

VMAT2 [2] = biological target: T1, VMAT2; conditions: hek293 cells, 50 µM
Procedure: as §1

human VMAT1 = biological target: T3, human VMAT1 (Homo sapiens, UniProt P54219); assay: FFN206 uptake assay in transfected Hek293 cells; type: cell-based; conditions: Table S1, substrate uptake assays in transfected Hek293 cells
T3 construct: expressed in transfected cells; host or cells: Hek293 cells, transient
T3 sequence (P54219 1-525): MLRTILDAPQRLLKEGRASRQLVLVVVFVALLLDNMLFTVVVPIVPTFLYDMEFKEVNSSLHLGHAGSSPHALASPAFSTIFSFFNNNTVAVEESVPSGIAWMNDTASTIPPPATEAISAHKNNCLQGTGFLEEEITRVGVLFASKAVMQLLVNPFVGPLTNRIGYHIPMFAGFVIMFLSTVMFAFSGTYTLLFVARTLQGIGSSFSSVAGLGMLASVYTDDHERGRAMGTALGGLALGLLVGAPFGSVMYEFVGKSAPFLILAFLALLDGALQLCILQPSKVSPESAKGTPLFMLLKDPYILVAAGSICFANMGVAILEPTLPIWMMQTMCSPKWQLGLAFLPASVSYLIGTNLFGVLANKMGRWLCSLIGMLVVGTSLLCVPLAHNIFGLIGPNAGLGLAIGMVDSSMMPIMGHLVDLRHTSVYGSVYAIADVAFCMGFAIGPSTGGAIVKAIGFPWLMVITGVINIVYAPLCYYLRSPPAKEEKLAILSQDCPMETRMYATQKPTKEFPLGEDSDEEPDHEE

human VMAT2 = biological target: T4, human VMAT2 (Homo sapiens, UniProt Q05940); assay: FFN206 uptake assay in transfected Hek293 cells; type: cell-based; conditions: Table S1, substrate uptake assays in transfected Hek293 cells
T4 construct: expressed in transfected cells; host or cells: Hek293 cells, transient
T4 sequence (Q05940 whole entry): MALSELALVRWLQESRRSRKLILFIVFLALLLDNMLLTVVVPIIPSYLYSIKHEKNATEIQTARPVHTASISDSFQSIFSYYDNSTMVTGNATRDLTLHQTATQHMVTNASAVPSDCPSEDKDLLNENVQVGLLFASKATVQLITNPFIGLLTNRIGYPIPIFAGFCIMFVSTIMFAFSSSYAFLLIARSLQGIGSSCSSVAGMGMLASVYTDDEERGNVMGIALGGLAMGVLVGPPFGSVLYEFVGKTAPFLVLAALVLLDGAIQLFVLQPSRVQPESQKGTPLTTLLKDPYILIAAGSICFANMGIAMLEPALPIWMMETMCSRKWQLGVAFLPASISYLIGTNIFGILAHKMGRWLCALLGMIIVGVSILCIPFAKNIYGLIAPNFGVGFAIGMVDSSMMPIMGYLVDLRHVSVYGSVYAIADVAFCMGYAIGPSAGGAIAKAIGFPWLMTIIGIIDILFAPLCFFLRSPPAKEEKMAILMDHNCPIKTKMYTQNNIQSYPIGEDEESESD

Compound | [3H]-tetrabenazine binding (rat VMAT2 variants) | [3H]-tetrabenazine binding: reduction (rat VMAT2 variants) [%] | [3H]-tetrabenazine binding: reduction in binding (rat VMAT2 variants) [%] | [3H]-tetrabenazine binding (rat VMAT2 variants; variant E313D, ref [3, 4]) | effect on [3H]-DTBZ binding compared with DMSO control (one-way ANOVA, p < 0.001) (VMAT2 [1]) | ΔTm (rat VMAT2-His) [oC] | ΔTm at 12 µM (rat VMAT2-His) [°C] | ΔTm at 37 µM (rat VMAT2-His) [°C] | ΔTm at 10 µM (rat VMAT2-His) [°C] | ΔTm at 30 µM (rat VMAT2-His) [°C] | ΔTm at 90 µM (rat VMAT2-His) [°C] | ΔTm at 270 µM (rat VMAT2-His) [°C] | ΔTm at 11 µM (rat VMAT2-His) [°C] | ΔTm at 33 µM (rat VMAT2-His) [°C] | VMAT2-specific FFN206 uptake relative to DMSO (=1), replicate samples (rat VMAT2) | activity (VMAT2 [2]) [%] | IC50 (human VMAT1) [nM] | IC50 (human VMAT2) [nM]
[3H]‐tetrabenazine | no TBZ binding | > 90 | 50 | no binding |  |  |  |  |  |  |  |  |  |  |  |  |  | 
CC(C)n1c(/C=C/C(O)CC(O)CC(=O)O)c(-c2ccc(F)cc2)c2ccccc21 (stereo not drawn) [Fluvastatin, Fluvastatin sodium salt] |  |  |  |  | no statistically significant effect | 4.98 ± 0.17 | 0.62 | 0.66 | 0.87 | 1.05 | 1.39 | 2.74 | 0.71 | 0.66 | 0.09585 and -0.01946 and 0.03446 | 80.2 ± 34.8 |  | 
COc1cc2c(cc1OC)C1CC(=O)C(CC(C)C)CN1CC2 (stereo not drawn) [Tetrabenazine] |  |  |  |  |  | 8.17 ± 0.14 | 4.89 | 5.05 | 6.86 | 4.27 | 4.64 | 5.17 | 5.52 | 5.92 |  |  | > 100000 | 18
